In patent publication EP2112152A1, “Dihydropteridinones as Plk Inhibitors” (GPC Biotech AG, priority 2008, dated 2009):
Read-outs that look alike come from different tables or passages of the source.

Assays:
Format in all cases: cell-based
HCT 116 = test: SRB cell proliferation assay, HCT 116; details: Homo sapiens, 72 hours, SRB assay, read-out: CELLULAR IC50 HCT 116
Method: (§1) We observed the surprising finding that compounds of the invention were useful in inhibiting proliferation of tumor cell lines (see Table 3).
(§2) Cells were exposed to the test compounds at various concentrations appropriate to determine an IC50 for 72 hours. Cell proliferation was measured using the SRB assay according to Shekan et al (J Natl Cancer Inst (1990) 82, 1107-112) in order to estimate the IC50 values shown in Table 3. Briefly, cells were plated in 96 well dishes 24 hours prior to compound addition at the densities specified in Table 5.1. The assay was terminated with the addition of cold TCA to a final concentration of 10% after growth medium has been removed and the plates were incubated over night at 4°C. The plates were then washed 5 times with water and 100µl of a Sulforhodamine B solution (4%) was added to each well. The plates were then incubated for 10 minutes at room temperature before removal of unbound dye by washing with 1% acetic acid. The bound dye was solubilised with 10 mM Trizma base and the absorbance read at OD520.
(§3) Inhibitory activity of the compounds (IC) was calculated as % inhibition of cell proliferation compared to cells treated with the solvent (DMSO).
(§4) Table 8.1: 18-Cell Line Panel

HT-29 = test: SRB cell proliferation assay, HT-29; details: Homo sapiens, 72 hours, SRB assay, read-out: CELLULAR IC50 HT-29
Method: as §1, §2, §3, §4

IMR-90 = test: SRB cell proliferation assay, IMR-90; details: Homo sapiens, 72 hours, SRB assay, slow cycling cell line, read-out: CELLULAR IC50 IMR-90
Method: as §1, §2, §3, §4

Plk1 = Plk1 (Homo sapiens, UniProt P53350); test: Cellular Plk1 kinase activity: nucleophosmin (B23) Ser4 phosphorylation in HCT116 cells (MSD electrochemiluminescence); set-up: host or cells: HCT116; details: 100 ng/ml nocodazole, 4 hours after compound addition, read-out: Biochemical IC50 Nucleophosmin assay
Method: We observed the surprising finding that compounds of the invention were able to penetrate cell membranes and retained their activity as Plk1 inhibitors against native Plk1 expressed within living cancer cells.
Cellular Plk1 kinase activity was measured by quantification of nucleophosmin (B23) Ser4 phosphorylation in a cancer cell line. Nucleophosmin (B23) Ser4 is phosphorylated by Plk1, and this phosphorylation can be specifically detected by cross-reactivity of a phospho-Mek1/2 antibody that is able to recognizes a mitotic-specific phosphorylated form of nucleophosmin (B23) in a nocodazole dependent way (Zhang, H., Shi, X., Paddon, H., Hampong, M., Dai, W., and Pelech, S. (2004) B23/Nuleophosmin Serin 4 Phosphorylation Mediates Mitotic Functions of Polo-like Kinase 1. J. Biol. Chem., 279(34), 35726-35734).
Briefly, HCT116 cells (ATCC, Order No. CCL-247) were plated in 96 well dishes 24 hours prior to nocodazole treatment at 25 000 cells per well. Cells were then treated with 100 ng/ml nocodazole (Sigma-Aldrich, # M1404). 20 hours after nocodazole treatment, cells were exposed to the test compounds at various concentrations appropriate to determine an IC50. 4 hours after compound addition, medium was carefully removed and 120 µl of Complete Tris Lysis Buffer (R60TX; MSD, Gaithersburg MD) was added to each well. Samples were then stored at -20°C.
The level of nucleophosmin (B23) Ser4 phosphorylation in these cell lysis samples was estimated by electrochemiluminescence detection using the Meso Scale Discovery ("MSD") Technology Platform (MSD, Gaithersburg MD). The protocol used was as recommended by the manufacturer with the use of a phospho-Mek1/2 antibody (Cell Signalling, #9121) as primary antibody, and is as follows.
The cell lysates were thawed at room temperature and 40 µl were incubated on 96-well MULTI-ARRAY High Bind plates (L11XB; MSD) for 1.5 - 2 hours at room temperature. The supernatants were then removed and 150 µl of a 5% (w/v) solution of Blocker A (R93AA; MSD) in Tris Wash Buffer (R61TX; MSD) were added to each well. The plates were then incubated for 1 hour at room temperature before removal of the Blocker A solution and washed 4 times with 200 µl Tris Wash Buffer. 25 µl primary antibody (anti-phospho-MEK1/2, Cell Signalling, #9121, rabbit polyclonal), diluted 1:250 in a 1% (w/v) solution of Blocker A in Tris Wash Buffer, were added to each well. The plates were then incubated for 1 hour at room temperature before removal of the antibody solution and washed 4 times with 200 µl Tris Wash Buffer. Then, 25 µl of labelled secondary antibody (SULFO-TAG Goat Anti-Rabbit IgGAntibody (R32AB; MSD), diluted 1:500 in a 1% (w/v) solution of Blocker A in Tris Wash Buffer) were added to each well. The plates were then incubated for 1 hour at room temperature before removal of the antibody solution and washed 4 times with 200 µl Tris Wash Buffer. Then, […] of 1x Read Buffer T (R92TC; MSD) were carefully added to each well and the plates were quantitatively detected for each well with a SECTOR™ Imager 6000 (MSD).
Inhibitory activity of the compounds (IC) was calculated as % inhibition of nucleophosmin (B23) Ser4 phosphorylation compared to cells not treated with nocodazole.

Sequence of Plk1 (P53350 whole entry, species assumed): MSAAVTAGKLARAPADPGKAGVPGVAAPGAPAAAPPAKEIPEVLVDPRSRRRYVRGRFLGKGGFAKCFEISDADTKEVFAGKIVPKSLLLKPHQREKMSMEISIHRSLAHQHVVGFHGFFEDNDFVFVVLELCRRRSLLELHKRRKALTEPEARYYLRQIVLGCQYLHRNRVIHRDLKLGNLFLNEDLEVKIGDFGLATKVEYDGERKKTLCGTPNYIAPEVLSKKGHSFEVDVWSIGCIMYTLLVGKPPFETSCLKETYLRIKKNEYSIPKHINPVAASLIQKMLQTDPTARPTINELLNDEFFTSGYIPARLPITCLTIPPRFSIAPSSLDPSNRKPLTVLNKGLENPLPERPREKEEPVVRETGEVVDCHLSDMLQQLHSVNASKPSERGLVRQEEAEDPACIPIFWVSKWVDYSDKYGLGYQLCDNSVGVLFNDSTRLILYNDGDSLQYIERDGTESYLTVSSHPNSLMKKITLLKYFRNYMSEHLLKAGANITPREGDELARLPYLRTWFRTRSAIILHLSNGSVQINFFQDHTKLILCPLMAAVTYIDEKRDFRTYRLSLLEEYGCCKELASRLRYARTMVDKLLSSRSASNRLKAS

## CCC1C(=O)N(C)c2cnc(Nc3ccc(C(=O)NCCN4CCCC4)cc3OC)nc2N1N(C)C (stereo not drawn) [Compound 2, 4-(8-Dimethylamino-7-ethyl-5-methyl-6-oxo-5,6,7,8-tetrahydro-pteridin-2-ylamino)-3-methoxy-N-(2-pyrrolidin-1-yl-ethyl)-benzamide]
HCT 116; HCT-116, 72 h
  IC50: < 1000 nM
HT-29; HT-29, 72 h
  IC50: < 1000 nM
IMR-90
  IC50: > 1000 nM
Plk1
  IC50: < 100 nM

## CCC1C(=O)N(C)c2cnc(Nc3ccc(C(=O)NCC4CCN(CC)CC4)cc3OC)nc2N1N(C)C (stereo not drawn) [Compound 3, 4-(8-Dimethylamino-7-ethyl-5-methyl-6-oxo-5,6,7,8-tetrahydro-pteridin-2-ylamino)-N-(1-ethyl-piperidin-4-ylmethyl)-3-methoxy-benzamide]
HCT 116; HCT-116, 72 h
  IC50: < 1000 nM
HT-29; HT-29, 72 h
  IC50: < 1000 nM
IMR-90
  IC50: > 1000 nM
Plk1
  IC50: < 100 nM

## CCC1C(=O)N(C)c2cnc(Nc3ccc(C(=O)NC4CCN(C(C)C)CC4)cc3OC)nc2N1N(C)C (stereo not drawn) [Compound 4, 4-(8-Dimethylamino-7-ethyl-5-methyl-6-oxo-5,6,7,8-tetrahydro-pteridin-2-ylamino)-N-(1-isopropyl-piperidin-4-yl)-3-methoxy-benzamide]
HCT 116; HCT-116, 72 h
  IC50: < 1000 nM
HT-29; HT-29, 72 h
  IC50: < 1000 nM
IMR-90
  IC50: > 1000 nM
Plk1
  IC50: < 100 nM

## CCC1C(=O)N(C)c2cnc(Nc3ccc(C(=O)NCc4ccc(N5CCN(C)CC5)cc4)cc3OC)nc2N1N(C)C (stereo not drawn) [Compound 11, 4-(8-Dimethylamino-7-ethyl-5-methyl-6-oxo-5,6,7,8-tetrahydro-pteridin-2-ylamino)-3-methoxy-N-[4-(4-methyl-piperazin-1-yl)-benzyl]-benzamide]
HCT 116; HCT-116
  IC50: < 1000 nM
HT-29; HT-29
  IC50: < 1000 nM
IMR-90
  IC50: > 1000 nM
Plk1
  IC50: < 100 nM

## CCC1C(=O)N(C)c2cnc(Nc3ccc(C(=O)NCC4CCN(Cc5ccccc5)CC4)cc3OC)nc2N1N(C)C (stereo not drawn) [Compound 12, N-(1-Benzyl-piperidin-4-ylmethyl)-4-(8-dimethylamino-7-ethyl-5-methyl-6-oxo-5,6,7,8-tetrahydro-pteridin-2-ylamino)-3-methoxy-benzamide]
HCT 116; HCT-116, 72 h
  IC50: < 1000 nM
HT-29; HT-29, 72 h
  IC50: < 1000 nM
IMR-90
  IC50: > 1000 nM
Plk1
  IC50: < 100 nM

## CCC1C(=O)N(C)c2cnc(Nc3ccc(C(=O)NC4CCN(C)CC4)cc3OC)nc2N1N(C)Cc1ccccc1 (stereo not drawn) [Compound 15, 4-[8-(Benzyl-methyl-amino)-7-ethyl-5-methyl-6-oxo-5,6,7,8-tetrahydro-pteridin-2-ylamino]-3-methoxy-N-(1-methyl-piperidin-4-yl)-benzamide]
HCT 116; HCT-116, 72 h
  IC50: < 1000 nM
HT-29; HT-29, 72 h
  IC50: < 1000 nM
IMR-90
  IC50: > 1000 nM
Plk1
  IC50: < 100 nM

## CCC1C(=O)N(C)c2cnc(Nc3ccc(C(=O)NC4CCN(C)CC4)cc3OC)nc2N1N(C)CC1CC1 (stereo not drawn) [Compound 17, 4-[8-(Cyclopropylmethyl-methyl-amino)-7-ethyl-5-methyl-6-oxo-5,6,7,8-tetrahydro-pteridin-2-ylamino]-3-methoxy-N-(1-methyl-piperidin-4-yl)-benzamide]
HCT 116; HCT-116, 72 h
  IC50: < 1000 nM
HT-29; HT-29, 72 h
  IC50: < 1000 nM
IMR-90
  IC50: > 1000 nM
Plk1
  IC50: < 500 nM

## CCCN(C)N1c2nc(Nc3ccc(C(=O)NC4CCN(C)CC4)cc3OC)ncc2N(C)C(=O)C1CC (stereo not drawn) [Compound 20, 4-[7-Ethyl-5-methyl-8-(methyl-propyl-amino)-6-oxo-5,6,7,8-tetrahydro-pteridin-2-ylamino]-3-methoxy-N-(1-methyl-piperidin-4-yl)-benzamide]
HCT 116; HCT-116, 72 h
  IC50: < 1000 nM
HT-29; HT-29, 72 h
  IC50: < 1000 nM
IMR-90
  IC50: > 1000 nM
Plk1
  IC50: < 100 nM

## CCC1C(=O)N(C)c2cnc(Nc3ccc(C(=O)NCC4CCN(CC)CC4)cc3OC)nc2N1N(C)Cc1ccccc1 (stereo not drawn) [Compound 21, 4-[8-(Benzyl-methyl-amino)-7-ethyl-5-methyl-6-oxo-5,6,7,8-tetrahydro-pteridin-2-ylamino]-N-(1-ethyl-piperidin-4-ylmethyl)-3-methoxy-benzamide]
HCT 116; HCT-116, 72 h
  IC50: < 1000 nM
HT-29; HT-29, 72 h
  IC50: < 1000 nM
IMR-90
  IC50: > 1000 nM
Plk1
  IC50: < 500 nM

## CCC1C(=O)N(C)c2cnc(Nc3ccc(C(=O)NC4CCN(C)CC4)cc3OC)nc2N1N(C)CC(C)C (stereo not drawn) [Compound 22, 4-[7-Ethyl-8-(isobutyl-methyl-amino)-5-methyl-6-oxo-5,6,7,8-tetrahydro-pteridin-2-ylamino]-3-methoxy-N-(1-methyl-piperidin-4-yl)-benzamide]
HCT 116; HCT-116, 72 h
  IC50: < 1000 nM
HT-29; HT-29, 72 h
  IC50: < 1000 nM
IMR-90
  IC50: > 1000 nM
Plk1
  IC50: < 100 nM

## CCC1C(=O)N(C)c2cnc(Nc3ccc(C(=O)NCC4CCN(CC)CC4)cc3OC)nc2N1N(C)CC(C)C (stereo not drawn) [Compound 23, 4-[7-Ethyl-8-(isobutyl-methyl-amino)-5-methyl-6-oxo-5,6,7,8-tetrahydro-pteridin-2-ylamino]-N-(1-ethyl-piperidin-4-ylmethyl)-3-methoxy-benzamide]
HCT 116; HCT-116, 72 h
  IC50: < 1000 nM
HT-29; HT-29, 72 h
  IC50: < 1000 nM
IMR-90
  IC50: > 1000 nM
Plk1
  IC50: < 100 nM

## CCC1C(=O)N(C)c2cnc(Nc3ccc(C(=O)NC4CCN(C)CC4)cc3OC)nc2N1N(C)CC1CCCC1 (stereo not drawn) [Compound 27, 4-[8-(Cyclopentylmethyl-methyl-amino)-7-ethyl-5-methyl-6-oxo-5,6,7,8-tetrahydro-pteridin-2-ylamino]-3-methoxy-N-(1-methyl-piperidin-4-yl)-benzamide]
HCT 116; HCT-116, 72 h
  IC50: < 1000 nM
HT-29; HT-29, 72 h
  IC50: < 1000 nM
IMR-90
  IC50: > 1000 nM
Plk1
  IC50: < 100 nM

## CCC1C(=O)N(C)c2cnc(Nc3ccc(C(=O)NC4CCN(C)CC4)cc3OC)nc2N1NC (stereo not drawn) [Compound 30, 4-(7-Ethyl-5-methyl-8-methylamino-6-oxo-5,6,7,8-tetrahydro-pteridin-2-ylamino)-3-methoxy-N-(1-methyl-piperidin-4-yl)-benzamide]
HCT 116; HCT-116, 72 h
  IC50: < 1000 nM
HT-29; HT-29, 72 h
  IC50: < 1000 nM
IMR-90
  IC50: > 1000 nM
Plk1
  IC50: < 100 nM

## CCC1C(=O)N(C)c2cnc(Nc3ccc(C(=O)NCC4CCN(CC)CC4)cc3OC)nc2N1NC (stereo not drawn) [Compound 32, 4-(7-Ethyl-5-methyl-8-methylamino-6-oxo-5,6,7,8-tetrahydro-pteridin-2-ylamino)-N-(1-ethyl-piperidin-4-ylmethyl)-3-methoxy-benzamide]
HCT 116; HCT-116, 72 h
  IC50: < 1000 nM
HT-29; HT-29, 72 h
  IC50: < 1000 nM
IMR-90
  IC50: > 1000 nM
Plk1
  IC50: < 500 nM

## CCC1C(=O)N(C)c2cnc(Nc3ccc(C(=O)NC4CCN(C)CC4)cc3OC)nc2N1N(C)CC1CCC1 (stereo not drawn) [Compound 33, 4-[8-(Cyclobutylmethyl-methyl-amino)-7-ethyl-5-methyl-6-oxo-5,6,7,8-tetrahydro-pteridin-2-ylamino]-3-methoxy-N-(1-methyl-piperidin-4-yl)-benzamide]
HCT 116; HCT-116, 72 h
  IC50: < 1000 nM
HT-29; HT-29, 72 h
  IC50: < 1000 nM
IMR-90
  IC50: > 1000 nM
Plk1
  IC50: < 100 nM
